Measured values: US10870638B2, “Pyridazinone compound or its salt, and herbicide containing it” (ISHIHARA SANGYO KAISHA, LTD., priority 2016, dated 2020)

Legend:
Type in all cases: in vivo
Settings in all cases: 14th day after application
[1] = system: wild oat (Avena fatua L.); assay: Test Example 1: foliar treatment, growth inhibition rate on 14th day
In short: (§1)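 Compounds applied once to leaves of pot-grown plants; wild oat at 0.4–1.2 leaf, foxtail 0.5–3.2, rice 0.2–2.7, soybean primary leaf. Inhibition estimated by eye on day 14.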

[2] = system: wheat (Triticum aestivum L.); assay: as above
In short: (§2)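 Visual 0–100% inhibition scoring (100 = complete kill) at 14 days after foliar treatment of soil-grown seedlings at species-specific leaf stages, with the compound sprayed as a wettable powder or emulsifiable concentrate dilution.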

[3] = system: barnyardgrass (Echinochloa crus-qalli L.); assay: as above
In short: as §2

[4] = system: green foxtail (Setaria viridis L.); assay: as above
In short: as §1

[5] = system: crabgrass (Digitaria sanquinalis L.); assay: as above
In short: as §2

rice (Oryza sativa L.) [6] = assay: as above
In short: as §1

corn (Zea mays L.) [7] = assay: as above
In short: as §2

[8] = system: redroot pigweed (Amaranthus retroflexus L.); assay: as above
In short: as §2

[9] = system: italian ryegrass (Lolium multiflorum Lam.); assay: as above
In short: as §2

[10] = system: soybean (Glycine max Merr.); assay: as above
In short: as §1

[11] = system: wheat (Triticum aestivum L.); assay: Test Example 2: soil application on the day after sowing, growth inhibition rate on 14th day
Text: (§3) Upland field soil was put into a 1/300,000 hectare pot, and seeds of various plants (barnyardgrass (Echinochloa crus-qalli L.), crabgrass (Digitaris sanquinalis L.), green foxtail (Setaria viridis L.), redroot pigweed (Amaranthus retroflexus L.), prickly sida (Sida spinosa L.), velvetleaf (Abutilon theophrasti MEDIC.), rice (Oryza sativa L.), corn (Zea mays L.), wheat (Triticum aestivum L.), soybean (Glycine max Merr.)) were sown. On the day after sowing, wettable powders or emulsifiable concentrates of the compounds of the present invention prepared in accordance with a conventional preparation method, were weighed so as to achieve the prescribed active ingredient amounts, and diluted with water in an amount corresponding to 1,000 liters per 1 hectare, followed by soil application by a small sprayer.
(§4) On the 14th day after the application, the state of growth of the respective plants was visually observed, and the herbicidal effect was evaluated by a growth inhibition rate (%) of 0 (equivalent to the non-treated area) to 100 (complete kill).

[12] = system: barnyardgrass (Echinochloa crus-qalli L.); assay: as above
Text: as §3, §4

[13] = system: green foxtail (Setaria viridis L.); assay: as above
Text: as §3, §4

[14] = system: crabgrass (Digitaris sanquinalis L.); assay: as above
Text: as §3, §4

rice (Oryza sativa L.) [15] = assay: as above
Text: as §3, §4

corn (Zea mays L.) [16] = assay: as above
Text: as §3, §4

[17] = system: redroot pigweed (Amaranthus retroflexus L.); assay: as above
Text: as §3, §4

[18] = system: prickly sida (Sida spinosa L.); assay: as above
Text: as §3, §4

[19] = system: velvetleaf (Abutilon theophrasti MEDIC.); assay: as above
Text: as §3, §4

[20] = system: soybean (Glycine max Merr.); assay: as above
Text: as §3, §4

[21] = active ingredient amount 31 g/ha
[22] = active ingredient amount 500 g/ha
[23] = active ingredient amount 31 g/ha, visual, 0 = non-treated, 100 = complete kill

| Structure (SMILES) | Growth inhibition rate (%) Wild oat [1, 21] [%] | Growth inhibition rate (%) Wheat [2, 21] [%] | Growth inhibition rate (%) Barnyardgrass [3, 21] [%] | Growth inhibition rate (%) Green foxtail [4, 21] [%] | Growth inhibition rate (%) Crabgrass [5, 21] [%] | Growth inhibition rate (%) Rice (rice (Oryza sativa L.) [6]; [21]) [%] | Growth inhibition rate (%) Corn (corn (Zea mays L.) [7]; [21]) [%] | Growth inhibition rate (%) Redroot pigweed [8, 21] [%] | Growth inhibition rate (%) Italian ryegrass [9, 21] [%] | Growth inhibition rate (%) Soybean [10, 21] [%] | Growth inhibition rate (%) Wheat [11, 21] [%] | Growth inhibition rate (%) Barnyardgrass [12, 21] [%] | Growth inhibition rate (%) Green foxtail [13, 21] [%] | Growth inhibition rate (%) Crabgrass [14, 21] [%] | Growth inhibition rate (%) Rice (rice (Oryza sativa L.) [15]; [21]) [%] | Growth inhibition rate (%) Corn (corn (Zea mays L.) [16]; [21]) [%] | Growth inhibition rate (%) Redroot pigweed [17, 21] [%] | Growth inhibition rate (%) Prickly sida [18, 21] [%] | Growth inhibition rate (%) Velvetleaf [19, 21] [%] | Growth inhibition rate (%) Soybean [20, 21] [%] | also measured |
| --- | --- | --- | --- | --- | --- | --- | --- | --- | --- | --- | --- | --- | --- | --- | --- | --- | --- | --- | --- | --- | --- |
| Cc1ccc(Oc2ncc(C(F)(F)F)cc2C(F)(F)F)cc1-c1c(O)c(C)nn(C)c1=O [Compound 2-84] | 99 | 0 | 99 | 100 | 100 | 0 | 90 | 0 | 93 | 0 | 0 | 100 | 100 | 100 | 60 | 0 | 0 | 0 | 0 | 0 |  |
| Cc1ccc(Oc2ccc3ccccc3n2)cc1-c1c(O)c(C)nn(C)c1=O [Compound 2-108] |  |  |  |  |  |  |  |  |  |  |  |  |  |  |  |  |  |  |  |  | Growth inhibition rate (%) Wild oat [1, 22]: 50%; Growth inhibition rate (%) Wheat [2, 22]: 50%; Growth inhibition rate (%) Barnyardgrass [3, 22]: 100%; Growth inhibition rate (%) Green foxtail [4, 22]: 95%; Growth inhibition rate (%) Crabgrass [5, 22]: 85%; Growth inhibition rate (%) Rice (rice (Oryza sativa L.) [6]; [22]): 93%; Growth inhibition rate (%) Corn (corn (Zea mays L.) [7]; [22]): 10%; Growth inhibition rate (%) Redroot pigweed [8, 22]: 0%; Growth inhibition rate (%) Italian ryegrass [9, 22]: 10%; Growth inhibition rate (%) Soybean [10, 22]: 20%; Growth inhibition rate (%) Wheat [11, 22]: 0%; Growth inhibition rate (%) Barnyardgrass [12, 22]: 100%; Growth inhibition rate (%) Green foxtail [13, 22]: 93%; Growth inhibition rate (%) Crabgrass [14, 22]: 98%; Growth inhibition rate (%) Rice (rice (Oryza sativa L.) [15]; [22]): 93%; Growth inhibition rate (%) Corn (corn (Zea mays L.) [16]; [22]): 0%; Growth inhibition rate (%) Redroot pigweed [17, 22]: 0%; Growth inhibition rate (%) Prickly sida [18, 22]: 0%; Growth inhibition rate (%) Velvetleaf [19, 22]: 0%; Growth inhibition rate (%) Soybean [20, 22]: 0% |
| C=CC(=O)Oc1c(C)nn(C)c(=O)c1-c1cc(Oc2cnc3cc(Cl)ccc3n2)ccc1C [Compound 3-49] |  |  |  |  |  |  |  |  |  |  | 10 | 95 | 85 | 20 | 0 | 0 | 0 | 0 | 0 | 0 | Growth inhibition rate (%) Wild oat [1, 23]: 98%; Growth inhibition rate (%) Wheat [2, 23]: 99%; Growth inhibition rate (%) Barnyardgrass [3, 23]: 99%; Growth inhibition rate (%) Green foxtail [4, 23]: 100%; Growth inhibition rate (%) Crabgrass [5, 23]: 100%; Growth inhibition rate (%) Rice (rice (Oryza sativa L.) [6]; [23]): 50%; Growth inhibition rate (%) Corn (corn (Zea mays L.) [7]; [23]): 45%; Growth inhibition rate (%) Redroot pigweed [8, 23]: 0%; Growth inhibition rate (%) Italian ryegrass [9, 23]: 100%; Growth inhibition rate (%) Soybean [10, 23]: 20% |
| CC(=O)Oc1c(C)nn(C)c(=O)c1-c1cc(Oc2ncc(Cl)cc2F)ccc1C [Compound 2-59] | 95 | 40 | 99 | 83 | 83 | 90 | 90 | 0 | 90 | 0 | 0 | 75 | 40 | 70 | 0 | 0 | 0 | 0 | 0 | 0 |  |
| CCc1ccc(Oc2nc3ccc(Cl)cc3o2)cc1-c1c(OC(C)=O)c(C)nn(C)c1=O [Compound 2-159] | 100 | 99 | 100 | 100 | 100 | 100 | 100 | 0 | 100 | 35 | 0 | 100 | 99 | 98 | 0 | 0 | 0 | 0 | 0 | 0 |  |
| CC(=O)Oc1cnn(C)c(=O)c1-c1cc(Oc2nc3ccc(Cl)cc3o2)ccc1C [Compound 2-164] | 90 | 10 | 100 | 100 | 100 | 83 | 90 | 0 | 95 | 40 | 0 | 50 | 90 | 98 | 0 | 0 | 0 | 0 | 0 | 0 |  |
| CCc1ccc(Oc2ncc(C(F)(F)F)cc2Cl)cc1-c1c(OC(C)=O)c(C)nn(C)c1=O [1-45] | 100 | 99 | 100 | 100 | 100 | 99 | 100 | 10 | 100 | 10 | 20 | 100 | 100 | 100 | 30 | 88 | 0 | 0 | 0 | 0 |  |
| Cc1ccc(Oc2ncc(C(F)(F)F)cc2F)cc1-c1c(O)c(C)nn(C)c1=O [Compound 2-5] | 95 | 40 | 100 | 100 | 99 | 85 | 75 | 20 | 95 | 0 | 30 | 100 | 100 | 100 | 80 | 65 | 0 | 0 | 0 | 0 |  |
